Results reported in a melting point compilation (Tetko et al.; mined from patent text by program, amines drawn as free bases though some values may be those of a salt).

melting point [°C]	SMILES
75 to 77	Fc1ccc(Nc2ccccc2C=C(Br)Br)cc1
173 to 175	Cc1sc2c(Br)c3ccccc3c(-c3ccc(O)c(N)c3)c2c1C
143 to 146	CC(C)CC(NC(=O)Cc1cccc2ccccc12)C(=O)NC(Cc1ccccc1)C(=O)CSCc1ccco1 (centres undefined)
184 to 185	CCOc1ccc(C(=O)Nc2ccccc2)cc1N(c1ccccc1)C(F)(F)F
129 to 130	COc1ccc(-c2cnc(-c3ccc(F)cc3)nc2-c2ccc(OC)cc2)cc1
105 to 108	CCCc1c(OCCCCCOc2ccc(C(=O)c3ccccc3CC(=O)O)cc2CCC(=O)O)ccc2c1OCCC2=O
267 to 275	CC1CC1n1cc(C(=O)O)c(=O)c2cc(F)c(N3CCC(N)C3)c(F)c21 (centres undefined)
88 to 89	NC[C@@H]1C[C@@H](SC(c2ccccc2)(c2ccccc2)c2ccccc2)CN1S(=O)(=O)c1ccc2ccccc2c1
138	COC(=O)CCCc1cc2nc(Cl)ccc2n1S(=O)(=O)c1cc(C)cc(C)c1
225 to 227	O=C(O)CNC(=O)c1nc2ccc(Oc3ccccc3)cc2cc1O
199 to 203	O=C1C(=O)c2ccc(-c3cccc(C(F)(F)F)c3)cc2C2=C1SCC1(CCNCC1)O2
142 to 143	CC(=O)OC1OCCC[C@@H]1NC(=O)[C@H](CC(C)C)NC(=O)OCc1ccccc1 (some centres undefined)
158 to 159	COc1nc(N)nc(C2CC2)n1
217 to 218	Cc1nc(-c2ccc(C(=O)c3ccccc3)cc2)sc1C(=O)O

Second part, the compound before the results:

SMILES	melting point [°C]
CC[C@H](C)[C@H](NS(=O)(=O)c1cccc2ccccc12)C(=O)N[C@H]1CCOC1OC (some centres undefined)	125 to 127
CCCCCc1ccc(-c2ccc(C3CCC(=O)O3)cc2)cc1 (single isomer, unassigned)	98.8
CC1CCN(C(=O)[C@H]2CC=CC[C@@H]2NC(=O)C(F)(F)F)CC1	169 to 170
CCc1cc(OCc2ccccc2)ccc1C(=O)NNC(=O)Cc1cccc(O)c1	190 to 191
CC(C(=O)O)c1ccc(-n2cccn2)c(Cl)c1 (centres undefined)	83 to 85
Cc1cc(=O)c2cc(NC(=O)C(=O)O)ccc2s1	238 to 240
CCCCCCCCc1ccc(CCC(CO)(CO)NC(C)=O)cc1	66 to 68
Cc1ccc2c(C(C)C(=O)O)cc(=O)[nH]c2c1 (centres undefined)	209 to 210
Cc1ccc(Nc2nnc(Cc3ccncc3)c3ccccc23)cc1C	180 to 181
CC1CCc2nc3c(N)nc4ccccc4c3n2N1 (centres undefined)	241 to 243
COCc1nc2cnc3ccccc3c2n1CC(C)(C)O	145 to 148
O=c1[nH]c(Cc2ccc(OCCc3coc(-c4ccccc4)n3)cc2)no1	154 to 158
Oc1c(-c2cccnc2)cccc1-c1cccnc1	211
Clc1ccccc1N=Nc1ncc[nH]1	173 to 177
O=C(Nc1ccc(F)c(NS(=O)(=O)c2cccs2)c1)c1ccc(F)c(F)c1	202 to 203
COC(=O)c1ccc(-c2cnc3[nH]c(=O)n(CC4CCCCC4)c3n2)cc1	253 to 255
NNc1nncc(-c2cccc(Cl)c2)n1	163 to 166
COc1ccc(C=CC=C(C#N)C#N)cc1	160
CCNCc1cnc2c(C)c(NC(=O)c3ccc(OC[C@@H]4CCCO4)cc3)ccc2c1	149 to 151
CCc1cc2c(NCc3ccc4c(c3)OCO4)nc(Cl)nc2s1	148
O=S(=O)(CCN1CCC2(CC1)OCc1ccccc12)CCN1CCC2(CC1)OCc1ccccc12	170 to 172
CC(C)c1nc(-c2ccccc2)n(-c2ccc(F)cc2)c1CO	186 to 188
CC(C)(CNC(=O)/C(CCO)=C(\c1ccc(Cl)cc1)c1ccc(S(C)(=O)=O)cc1)SN=O	150 to 153
CC(C)N1CCC(CNc2ccc(F)cc2C(=O)Nc2ccc(Cl)cn2)CC1	142 to 144
COC1=N/C(=C\c2c[nH]c3ncc(Cl)cc23)C(=O)N1c1ccccc1	228
